In publication PMC11079024, “Identification of a family of species-selective complex I inhibitors as potential anthelmintics” (Nature Communications, 2024):
Values joined by “and” are separate entries in the source; they are usually repeats but may differ in a detail not shown here. Equal values may be shown once. Read-outs that look alike come from different tables or passages of the source.

Assays:
[1] = test system: C. elegans complex IV (cytochrome C oxidase); assay: In vitro complex IV activity assay, C. elegans mitochondria; format: biochemical, Caenorhabditis elegans
Procedure, shortened: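 Mitochondria from liquid-cultured adult C. elegans (N2, CB3474, ECA882, ECA917, ECA1075, ECA1080), isolated by differential centrifugation and used at 0.2 mg/mL protein. Oxidation of DTT-reduced cytochrome C followed at 550 nm every 30 s for 15 min. Activity from the initial linear slope, expressed as percent of solvent controls.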

[2] = target: M. musculus (heart) complex I (Mus musculus, UniProt P03888+Q91WD5+Q9DC70); assay: biochemical; format: biochemical; set-up: Complex I activity, dose-response data: unit not given here
Experimental: Six 8–10-week-old C57Bl/6 female mice (Charles River) were freshly dissected, and their livers and hearts collected into separate 1.5 mL microcentrifuge tubes. Organs were flash-frozen in liquid nitrogen and stored at −80 °C prior to use. The heart of a freshly slaughtered adult cow was obtained from a local abattoir (Peel Sausage Inc.), chopped into ~1-inch cubes and collected into 50 mL falcon tubes. Falcon tubes were flash-frozen in a container of dry ice and stored at −80 °C prior to use. Isolation of mitochondria from all mammalian tissue was carried out following the protocol described above. However, due to size, the initial homogenization of tissue was performed by 15 strokes in a dounce homogenizer (mouse heart) or with several 5 s pulses in small Nutribullet blender (cow heart). All mouse protocols for mouse care and dissection were reviewed and approved by the University of Toronto Animal Care Committee, in accordance with the Canadian Council on Animal Care.
The enzymatic activities of individual ETC complexes (I-IV) were assessed spectrophotometrically in isolated mitochondria using a Varioskan LUX Multimode plate reader (ThermoFisher Scientific). Mitochondrial pellets previously isolated were thawed on ice and resuspended in ice-cold isolation buffer (250 mM sucrose, 10 mM Tris (pH 7.5), 1 mM EDTA). The BCA assay (Walker, 1994) was used to quantify the protein concentration of mitochondria suspensions; solutions were diluted to a concentration of 0.2 mg/mL for use in all assays. For the complex I assay, mitochondria pellets were freeze-thawed on ice three times to increase enzyme accessibility. […] 20 μL mitochondria suspension was then added/mixed with a pipette to initiate the reaction. Immediately following the addition of mitochondria, absorbance was measured (complex I and II: 600 nm; complex III and IV: 550 nm) in 30 s intervals over 15 min. Enzymatic activity was determined in each reaction by plotting absorbance versus time and calculating the slope of the curve during the initial linear phase of the reaction. […] Percent activity of each complex was calculated by dividing the enzyme-specific activity of each well by the enzyme-specific activity of the corresponding solvent controls.
Chemical solutions were prepared in complex I assay buffer composed of 25 mM KPi buffer (pH 7.5), 3 mg/mL bovine serum albumin (BSA), 80 μM NADH, 60 μM decylubiquinone, 160 μM DCIP, 2 μM antimycin A and 2 mM KCN.
For preliminary screens of hit compounds, compounds were screened at 100 μM; data are the average of at least three biological replicates. The complex I and II activity assays were used for additional dose-response experiments. […] For dose responses of benzimidazole analogs, data represent the average of two biological replicates. For all other dose-responses, data represent the average of at least three biological replicates.

[3] = M. musculus (heart) mitochondria, mean of replicates, read-out: percent (%) in vitro complex I activity relative to solvent control
[4] = M. musculus (heart) mitochondria, single replicate, read-out: percent (%) in vitro complex I activity relative to solvent control
[5] = M. musculus (heart) mitochondria, Mean of replicates, read-out: in vitro complex I activity relative to solvent control
[6] = M. musculus (heart) mitochondria, single replicate, read-out: in vitro complex I activity relative to solvent control

M. musculus (heart) complex I, sequence (Q91WD5 34-463): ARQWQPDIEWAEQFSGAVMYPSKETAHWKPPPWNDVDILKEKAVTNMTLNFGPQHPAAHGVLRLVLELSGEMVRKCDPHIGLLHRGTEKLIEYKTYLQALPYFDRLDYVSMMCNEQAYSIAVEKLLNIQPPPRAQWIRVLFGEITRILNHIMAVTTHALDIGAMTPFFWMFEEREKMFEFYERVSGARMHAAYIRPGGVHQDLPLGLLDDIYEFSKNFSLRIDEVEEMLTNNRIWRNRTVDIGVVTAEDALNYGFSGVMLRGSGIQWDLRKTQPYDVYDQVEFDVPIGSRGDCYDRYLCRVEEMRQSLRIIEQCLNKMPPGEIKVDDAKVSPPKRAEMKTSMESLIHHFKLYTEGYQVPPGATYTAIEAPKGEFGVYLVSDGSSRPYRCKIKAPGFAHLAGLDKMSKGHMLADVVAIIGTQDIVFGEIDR
M. musculus (heart) complex I, sequence (Q9DC70 36-224): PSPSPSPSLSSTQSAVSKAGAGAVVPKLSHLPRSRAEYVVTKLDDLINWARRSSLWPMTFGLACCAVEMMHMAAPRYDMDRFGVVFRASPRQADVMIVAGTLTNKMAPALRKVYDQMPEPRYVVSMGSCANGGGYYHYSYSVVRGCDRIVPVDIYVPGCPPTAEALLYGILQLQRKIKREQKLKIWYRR
M. musculus (heart) complex I, sequence (P03888 whole entry): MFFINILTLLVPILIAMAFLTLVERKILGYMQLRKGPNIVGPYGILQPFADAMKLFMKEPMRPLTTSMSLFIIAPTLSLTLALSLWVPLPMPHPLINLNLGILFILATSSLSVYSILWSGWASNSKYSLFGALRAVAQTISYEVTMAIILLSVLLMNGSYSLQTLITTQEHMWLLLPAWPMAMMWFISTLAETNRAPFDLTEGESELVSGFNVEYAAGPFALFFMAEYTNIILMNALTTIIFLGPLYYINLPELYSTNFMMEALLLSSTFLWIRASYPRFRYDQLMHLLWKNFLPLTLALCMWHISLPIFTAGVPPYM

Structure (SMILES): CC(C)Cc1ccc(C(C)c2nc3ccccc3n2C)cc1 (centres unmarked) [NPD8790]
- % Activity Complex IV ([1]; 100 µM compound, relative to solvent control, mean (SEM)): 79.84 (1.34) %
- Percent in vitro activity, Complex IV (single replicate Rep1-Rep4) ([1]; 100 μM of NPD compound, C. elegans mitochondria, individual biological replicates): 83.143% and 80.952% and 83.287% and 71.964%
- Percent in vitro activity, Complex IV (Mean) ([1]; 100 μM of NPD compound, C. elegans mitochondria, mean of four biological replicates): 79.837%
- remaining activity at 0.125 µM [2, 3]: 101%
- remaining activity at 0.125 µM [2, 4]: 99.7%
- remaining activity at 0.313 µM [2, 3]: 97.5%
- remaining activity at 0.313 µM [2, 4]: 97.7%
- remaining activity at 0.625 µM [2, 3]: 100%
- remaining activity at 0.625 µM [2, 4]: 100%
- remaining activity at 1.5 µM [2, 3]: 100%
- remaining activity at 1.5 µM [2, 4]: 100%
- remaining activity at 3 µM [2, 3]: 99.1%
- remaining activity at 3 µM [2, 4]: 100%
- remaining activity at 15 µM [2, 3]: 78.9%
- remaining activity at 15 µM [2, 4]: 77.5%
- remaining activity at 37.5 µM [2, 3]: 44.3%
- remaining activity at 37.5 µM [2, 4]: 40.4%
- remaining activity at 75 µM [2, 3]: 24.7%
- remaining activity at 75 µM [2, 4]: 18%
- remaining activity at 0.06 µM ([2]; M. musculus (heart) mitochondria, 0.06 µM, Mean of replicates, read-out: in vitro complex I activity relative to solvent control): 103%
- remaining activity at 0.13 µM [2, 5]: 101%
- remaining activity at 0.13 µM [2, 6]: 99.7%
- remaining activity at 0.313 µM [2, 5]: 97.5%
- remaining activity at 0.313 µM [2, 6]: 97.7%
- remaining activity at 0.625 µM [2, 5]: 100%
- remaining activity at 0.625 µM [2, 6]: 100%
- remaining activity at 1.5 µM [2, 5]: 100%
- remaining activity at 1.5 µM [2, 6]: 100%
- remaining activity at 3 µM [2, 5]: 99.1%
- remaining activity at 3 µM [2, 6]: 100%
- remaining activity at 15 µM [2, 5]: 78.9%
- remaining activity at 15 µM [2, 6]: 77.5%
- remaining activity at 37.5 µM [2, 5]: 44.3%
- remaining activity at 37.5 µM [2, 6]: 40.4%
- remaining activity at 75 µM [2, 5]: 24.7%
- remaining activity at 75 µM [2, 6]: 18%
- activity at 0.0001 µM ([2]; M. musculus, Mean of replicates, read-out: Complex I activity, dose-response data): 100%
- activity at 0.0001 µM ([2]; M. musculus, individual replicates (Rep), read-out: Complex I activity, dose-response data): 100%
- activity at 0.0005 µM ([2]; M. musculus, dose 0.0005 µM, Mean of replicates, read-out: Complex I activity, dose-response data): 103%
- Complex I activity, dose-response data ([2]; M. musculus, dose 0.0005 µM, individual replicates (Rep)): 104.677 and 101.090 and 100.240
- activity at 0.0005 µM ([2]; M. musculus, dose 0.0005 µM, individual replicates (Rep), read-out: Complex I activity, dose-response data): 105%
- activity at 0.001 µM ([2]; M. musculus, dose 0.001 µM, Mean of replicates, read-out: Complex I activity, dose-response data): 103%
- Complex I activity, dose-response data ([2]; M. musculus, dose 0.001 µM, individual replicates (Rep)): 105.312 and 100.449 and 100.153
- activity at 0.001 µM ([2]; M. musculus, dose 0.001 µM, individual replicates (Rep), read-out: Complex I activity, dose-response data): 106%
- activity at 0.0025 µM ([2]; M. musculus, dose 0.0025 µM, Mean of replicates, read-out: Complex I activity, dose-response data): 104%
- Complex I activity, dose-response data ([2]; M. musculus, dose 0.0025 µM, individual replicates (Rep)): 112.270 and 101.643 and 99.207
- activity at 0.0025 µM ([2]; M. musculus, dose 0.0025 µM, individual replicates (Rep), read-out: Complex I activity, dose-response data): 103%
- activity at 0.005 µM ([2]; M. musculus, dose 0.005 µM, Mean of replicates, read-out: Complex I activity, dose-response data): 104%
- Complex I activity, dose-response data ([2]; M. musculus, dose 0.005 µM, individual replicates (Rep)): 110.480 and 103.776 and 102.056
- activity at 0.005 µM ([2]; M. musculus, dose 0.005 µM, individual replicates (Rep), read-out: Complex I activity, dose-response data): 101%
- activity at 0.013 µM ([2]; M. musculus, dose 0.013 µM, Mean of replicates, read-out: Complex I activity, dose-response data): 104%
- Complex I activity, dose-response data ([2]; M. musculus, dose 0.013 µM, individual replicates (Rep)): 111.361 and 104.185 and 100.073
- activity at 0.013 µM ([2]; M. musculus, dose 0.013 µM, individual replicates (Rep), read-out: Complex I activity, dose-response data): 99.2%
- activity at 0.025 µM ([2]; M. musculus, dose 0.025 µM, Mean of replicates, read-out: Complex I activity, dose-response data): 106%
- Complex I activity, dose-response data ([2]; M. musculus, dose 0.025 µM, individual replicates (Rep)): 117.035 and 103.670 and 100.685
- activity at 0.025 µM ([2]; M. musculus, dose 0.025 µM, individual replicates (Rep), read-out: Complex I activity, dose-response data): 102%
- activity at 0.063 µM ([2]; M. musculus, dose 0.063 µM, Mean of replicates, read-out: Complex I activity, dose-response data): 103%
- Complex I activity, dose-response data ([2]; M. musculus, dose 0.063 µM, individual replicates (Rep)): 102.752 and 117.261 and 99.301 and 94.461
- activity at 0.125 µM ([2]; M. musculus, dose 0.125 µM, Mean of replicates, read-out: Complex I activity, dose-response data): 101%
- Complex I activity, dose-response data ([2]; M. musculus, dose 0.125 µM, individual replicates (Rep)): 109.547 and 101.293 and 94.390
- activity at 0.125 µM ([2]; M. musculus, dose 0.125 µM, individual replicates (Rep), read-out: Complex I activity, dose-response data): 99.7%
- Complex I activity, dose-response data ([2]; M. musculus, dose 0.313 µM, individual replicates (Rep)): 201.293 and 194.390
- activity at 0.313 µM ([2]; M. musculus, dose 0.313 µM, individual replicates (Rep), read-out: Complex I activity, dose-response data): 210%
- Complex I activity, dose-response data ([2]; M. musculus, dose 0.625 µM, individual replicates (Rep)): 301.293 and 294.390
- activity at 0.625 µM ([2]; M. musculus, dose 0.625 µM, individual replicates (Rep), read-out: Complex I activity, dose-response data): 310%
- Complex I activity, dose-response data ([2]; M. musculus, dose 1.5 µM, individual replicates (Rep)): 401.293 and 394.390
- activity at 1.5 µM ([2]; M. musculus, dose 1.5 µM, individual replicates (Rep), read-out: Complex I activity, dose-response data): 410%
- activity at 3 µM ([2]; M. musculus, dose 3 µM, Mean of replicates, read-out: Complex I activity, dose-response data): 99.1%
- Complex I activity, dose-response data ([2]; M. musculus, dose 3 µM, individual replicates (Rep)): 102.668 and 98.080 and 95.248
- activity at 3 µM ([2]; M. musculus, dose 3 µM, individual replicates (Rep), read-out: Complex I activity, dose-response data): 100%
- activity at 15 µM ([2]; M. musculus, dose 15 µM, Mean of replicates, read-out: Complex I activity, dose-response data): 78.9%
- Complex I activity, dose-response data ([2]; M. musculus, dose 15 µM, individual replicates (Rep)): 87.100 and 75.283 and 75.658
- activity at 15 µM ([2]; M. musculus, dose 15 µM, individual replicates (Rep), read-out: Complex I activity, dose-response data): 77.5%
- activity at 37.5 µM ([2]; M. musculus, dose 37.5 µM, Mean of replicates, read-out: Complex I activity, dose-response data): 44.3%
- Complex I activity, dose-response data ([2]; M. musculus, dose 37.5 µM, individual replicates (Rep)): 50.337 and 43.421 and 43.042
- activity at 37.5 µM ([2]; M. musculus, dose 37.5 µM, individual replicates (Rep), read-out: Complex I activity, dose-response data): 40.4%
- activity at 75 µM ([2]; M. musculus, dose 75 µM, Mean of replicates, read-out: Complex I activity, dose-response data): 24.7%
- Complex I activity, dose-response data ([2]; M. musculus, dose 75 µM, individual replicates (Rep)): 29.417 and 25.967 and 25.618
- activity at 75 µM ([2]; M. musculus, dose 75 µM, individual replicates (Rep), read-out: Complex I activity, dose-response data): 18%
- IC50 ([2]; heart mitochondria): 28.8 µM and 28.9 µM
